# Data published in paper PMC11475281, “A Novel Liver Cancer-Selective Histone Deacetylase Inhibitor Is Effective against Hepatocellular Carcinoma and Induces Durable Responses with Immunotherapy” (ACS Pharmacology & Translational Science, 2024).
# Like-named read-outs stand apart in the source and are kept apart here.
# Legend:
# [1] = test system: A549 (lung adenocarcinoma); experiment: MTS cell viability assay, 72 h; format: cell-based; conditions: Table S2, read-out: Anti-proliferation IC50 A549
# From the text: (§1) We then screened STR-V-53 and all the synthesized glycosylated HDACi for their effects on the viability of three cell lines: A549 (lung adenocarcinoma), Hep-G2 (HCC), and VERO (a normal kidney epithelial cell). We used SORA and STR-V-48, a previously disclosed nonglycosylated compound, as controls.[25] […] Additionally, compound STR-V-167, the peracetylated analog of STR-V-53, largely retained the Hep-G2 selectivity of STR-V-53 (Table S2). Subsequently, we evaluated the effects of STR-V-53 on cell proliferation using a panel of human HCC cell lines (Huh-7, SK-Hep-1, and Hep3B) as well as Kupffer cells (liver resident macrophages) by MTS assay. We observed that STR-V-53 is 7- to 16-fold more cytotoxic against these HCC cell lines relative to the Kupffer cells (Figure 1g). […] Based on their weak HDAC and cell proliferation inhibition activities, we de-emphasized further evaluation of the class III compounds.
# (§2) 10-017-CV), supplemented with 10% fetal bovine serum (FBS) (Corning, 35-010-CV). Hep-G2 cells were cultured in phenol red-free Minimum Essential Medium (MEM) (Corning, 17-305-CV), supplemented with 10% fetal bovine serum (FBS). SK-Hep-1 in ATCC-formulated EMEM (ATCC® 30–2003™); Huh-7 in DMEM (containing 4 mM L-glutamine and 1 g/L glucose) with […]
# (§3) Kupffer Cell Media (Sekisui XenoTech, LLC, Cat. #K8700). Cells were seeded into a 96-well plate (2000 counts/100uL) for 24 h prior to treatment and then treated with various drug concentrations for 72 h. All drugs were dissolved in media with DMSO concentration maintained at 1%. The effect of compounds on cell viability was measured using the MTS assay (CellTiter 96 Aqueous One Solution and CellTiter 96 Non-Radioactive Cell Proliferation Assays, Promega, Madison, WI) as described by the manufacturer. IC50s were determined using Prism GraphPad 8. […]
# [2] = test system: VERO (a normal kidney epithelial cell); experiment: MTS cell viability assay, 72 h; format: cell-based; conditions: Table S2, read-out: Anti-proliferation IC50 VERO
# From the text: as §1, §2, §3
# Hep-G2 (HCC) = experiment: MTS cell viability assay, 72 h; format: cell-based, human; conditions: for IC50: Table S2, read-out: Anti-proliferation IC50 Hep-G2; for Hep-G2-selectivity (VERO/Hep-G2): ratio of VERO to Hep-G2 cytotoxicity
# From the text: as §1, §2, §3
# HDAC1 = HDAC1 (Homo sapiens, UniProt Q13547); experiment: HDAC isoform inhibition (BPS Bioscience); conditions: read-out: HDAC1 IC50; Table S1
# Chain of HDAC1 (Q13547 whole entry, canonical isoform): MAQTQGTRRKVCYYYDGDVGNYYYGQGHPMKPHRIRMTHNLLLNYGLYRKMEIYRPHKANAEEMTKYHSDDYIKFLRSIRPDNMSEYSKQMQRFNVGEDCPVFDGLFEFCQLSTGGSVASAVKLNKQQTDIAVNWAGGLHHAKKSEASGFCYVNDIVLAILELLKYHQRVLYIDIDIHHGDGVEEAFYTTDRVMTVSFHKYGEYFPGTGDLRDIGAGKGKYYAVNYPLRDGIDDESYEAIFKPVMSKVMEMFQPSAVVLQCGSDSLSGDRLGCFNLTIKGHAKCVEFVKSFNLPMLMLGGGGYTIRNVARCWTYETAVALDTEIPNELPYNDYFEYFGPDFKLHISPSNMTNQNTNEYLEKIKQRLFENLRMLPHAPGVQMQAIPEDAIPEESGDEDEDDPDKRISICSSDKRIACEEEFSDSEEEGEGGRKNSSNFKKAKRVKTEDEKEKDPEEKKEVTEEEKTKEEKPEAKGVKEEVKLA
# HDAC2 = HDAC2 (Homo sapiens, UniProt Q92769); experiment: HDAC isoform inhibition (BPS Bioscience); conditions: read-out: HDAC2 IC50; Table S1
# Chain of HDAC2 (Q92769 whole entry, canonical isoform): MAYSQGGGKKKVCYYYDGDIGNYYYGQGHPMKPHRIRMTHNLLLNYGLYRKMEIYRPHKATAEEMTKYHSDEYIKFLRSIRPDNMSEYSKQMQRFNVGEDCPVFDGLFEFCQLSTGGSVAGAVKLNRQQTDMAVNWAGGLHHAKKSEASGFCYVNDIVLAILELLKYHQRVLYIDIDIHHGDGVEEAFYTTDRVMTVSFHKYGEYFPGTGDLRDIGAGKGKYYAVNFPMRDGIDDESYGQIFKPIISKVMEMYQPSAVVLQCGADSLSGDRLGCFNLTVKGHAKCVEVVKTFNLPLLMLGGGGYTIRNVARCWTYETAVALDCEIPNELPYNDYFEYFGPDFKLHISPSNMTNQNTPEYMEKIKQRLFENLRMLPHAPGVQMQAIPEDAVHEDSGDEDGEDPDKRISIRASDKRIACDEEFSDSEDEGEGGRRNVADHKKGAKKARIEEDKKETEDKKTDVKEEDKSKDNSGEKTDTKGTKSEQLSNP
# HDAC6 = target: T1, HDAC6 (Homo sapiens, UniProt Q9UBN7); experiment: HDAC isoform inhibition (BPS Bioscience); conditions: read-out: HDAC6 IC50; Table S1
# T1 sequence (Q9UBN7 1-1215): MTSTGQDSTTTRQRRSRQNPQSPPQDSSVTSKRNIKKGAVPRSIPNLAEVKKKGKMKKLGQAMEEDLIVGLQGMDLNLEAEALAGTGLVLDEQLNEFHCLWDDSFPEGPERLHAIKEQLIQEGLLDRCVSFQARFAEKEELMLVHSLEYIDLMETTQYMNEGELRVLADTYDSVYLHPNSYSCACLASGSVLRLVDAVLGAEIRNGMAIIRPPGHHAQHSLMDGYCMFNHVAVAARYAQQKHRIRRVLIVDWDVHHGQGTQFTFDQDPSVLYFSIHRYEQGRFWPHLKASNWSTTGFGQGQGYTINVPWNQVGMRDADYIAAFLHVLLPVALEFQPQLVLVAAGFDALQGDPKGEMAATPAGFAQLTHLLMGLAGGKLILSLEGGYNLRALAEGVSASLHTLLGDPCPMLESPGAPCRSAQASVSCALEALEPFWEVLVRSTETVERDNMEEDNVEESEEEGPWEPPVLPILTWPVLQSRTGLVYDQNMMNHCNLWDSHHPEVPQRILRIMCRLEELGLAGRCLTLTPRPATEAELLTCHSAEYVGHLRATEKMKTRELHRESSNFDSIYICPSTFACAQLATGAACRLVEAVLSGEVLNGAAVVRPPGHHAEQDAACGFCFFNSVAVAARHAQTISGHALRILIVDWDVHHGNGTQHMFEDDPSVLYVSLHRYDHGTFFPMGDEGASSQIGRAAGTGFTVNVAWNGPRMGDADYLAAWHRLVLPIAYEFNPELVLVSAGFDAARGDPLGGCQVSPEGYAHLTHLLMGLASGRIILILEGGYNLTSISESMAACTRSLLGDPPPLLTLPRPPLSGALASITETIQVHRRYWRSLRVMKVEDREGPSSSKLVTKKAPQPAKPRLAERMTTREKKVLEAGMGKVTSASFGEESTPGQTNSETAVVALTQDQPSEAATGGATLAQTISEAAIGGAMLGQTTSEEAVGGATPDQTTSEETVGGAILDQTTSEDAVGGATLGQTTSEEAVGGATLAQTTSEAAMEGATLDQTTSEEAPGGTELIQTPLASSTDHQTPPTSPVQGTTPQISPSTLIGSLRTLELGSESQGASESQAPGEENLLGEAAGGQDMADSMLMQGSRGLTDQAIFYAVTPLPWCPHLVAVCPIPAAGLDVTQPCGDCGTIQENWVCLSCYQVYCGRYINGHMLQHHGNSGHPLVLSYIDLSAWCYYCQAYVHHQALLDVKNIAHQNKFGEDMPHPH
# HDAC8 = target: T2, HDAC8 (Homo sapiens, UniProt Q9BY41); experiment: HDAC isoform inhibition (BPS Bioscience); conditions: read-out: HDAC8 IC50; Table S1
# T2 sequence (Q9BY41 1-377): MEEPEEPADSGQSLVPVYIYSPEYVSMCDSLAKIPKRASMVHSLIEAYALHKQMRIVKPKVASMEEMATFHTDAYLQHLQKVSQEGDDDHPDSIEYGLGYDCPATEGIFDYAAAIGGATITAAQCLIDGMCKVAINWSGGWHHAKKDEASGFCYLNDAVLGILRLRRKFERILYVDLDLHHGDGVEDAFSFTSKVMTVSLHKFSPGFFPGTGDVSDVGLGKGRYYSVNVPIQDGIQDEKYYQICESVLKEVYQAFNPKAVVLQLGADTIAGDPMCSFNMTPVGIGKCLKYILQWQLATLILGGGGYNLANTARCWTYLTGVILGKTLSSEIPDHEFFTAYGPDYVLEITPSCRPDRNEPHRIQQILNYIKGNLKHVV
# HCC = test system: HCC; parameters: method as in PMID 22915658; conditions: HCC patients on belinostat treatment, NCT00321594; cited from earlier work
IC50 [1],IC50 (Hep-G2 (HCC)),IC50 (HDAC1),IC50 (HDAC2),IC50 (HDAC6),IC50 (HDAC8),"IC50 ([1]; Homo sapiens, A549)","IC50 (Hep-G2 (HCC); Homo sapiens, HepG2)",SMILES,IC50 [2],Hep-G2-selectivity (VERO/Hep-G2) (Hep-G2 (HCC)),"IC50 ([2]; Chlorocebus sabaeus, Vero)",Median overall survival (OS) (HCC),Median progression-free survival (PFS) (HCC)
20100 ± 1100 nM,7500 ± 800 nM,3.28 nM,10.4 nM,0.72 nM,319 nM,–,–,O=C(CCCCCCn1cc(-c2ccc3cc(O[C@@H]4O[C@H](CO)[C@@H](O)[C@H](O)[C@H]4O)ccc3c2)nn1)NO [STR-II-36],33600 ± 5500 nM,–,–,–,–
–,–,–,–,–,–,1400 ± 200 nM,400 ± 40 nM,"COc1ccc2cc(-c3cn(CCCCCCC(=O)NO)nn3)ccc2c1 [STR-V-48, N-hydroxy-7-(4-(6-methoxynaphthalen-2-yl)-1H-1,2,3-triazol-1-yl)heptanamide, reference compound]",–,–,200 ± 50 nM,–,–
64700 ± 7000 nM,8000 ± 900 nM,1.43 nM,4.2 nM,1.05 nM,271 nM,–,–,CC(=O)OCC1OC(Oc2ccc(-c3cn(CCCCCCC(=O)NO)nn3)cc2)C(OC(C)=O)C(OC(C)=O)C1OC(C)=O (stereo not shown) [STR-V-176],77400 ± 5600 nM,10 fold,–,–,–

# More lines, now with the values behind:
SMILES,IC50 [1],IC50 (Hep-G2 (HCC)),IC50 (HDAC1),IC50 (HDAC2),IC50 (HDAC6),IC50 (HDAC8),"IC50 ([1]; Homo sapiens, A549)","IC50 (Hep-G2 (HCC); Homo sapiens, HepG2)",IC50 [2],Hep-G2-selectivity (VERO/Hep-G2) (Hep-G2 (HCC)),"IC50 ([2]; Chlorocebus sabaeus, Vero)",Median overall survival (OS) (HCC),Median progression-free survival (PFS) (HCC)
CC(=O)O[C@H]1[C@H](Oc2ccc(-c3cn(CCCCCCC(=O)NO)nn3)cc2)O[C@H](C)C[C@@H]1N(C)C [STR-V-165],33700 ± 1800 nM,9600 ± 3400 nM,10.3 nM,27.5 nM,5.22 nM,806 nM,–,–,76400 nM,8 fold,–,–,–
CC(=O)OCC1OC(Oc2ccc3cc(-c4cn(CCCCCCC(=O)NO)nn4)ccc3c2)C(OC(C)=O)C(OC(C)=O)C1OC(C)=O (stereo not shown) [STR-V-177],39600 ± 600 nM,7400 ± 900 nM,2.2 nM,13.2 nM,1.65 nM,718 nM,–,–,19200 ± 900 nM,–,–,–,–
"CNC(=O)c1cc(Oc2ccc(NC(=O)Nc3ccc(Cl)c(C(F)(F)F)c3)cc2)ccn1 [SORA, sorafenib, reference compound]",–,–,–,–,–,–,18100 ± 2900 nM,3700 ± 400 nM,–,about three times more cytotoxic,12200 ± 100 nM,–,–
CC(=O)OCC1OC(Oc2ccc(-c3cn(CCCCCCC(=O)NO)nn3)cc2)C(OC(C)=O)C(OC(C)=O)C1OC(C)=O (stereo not shown) [STR-V-167],> 100000 nM,10100 ± 1200 nM,31.8 nM,66.4 nM,2.61 nM,311 nM,–,–,> 100000 nM,–,–,–,–
O=C(/C=C/c1cccc(S(=O)(=O)Nc2ccccc2)c1)NO [belinostat],–,–,–,–,–,–,–,–,–,–,–,6.60 months,2.64 months
